Read-outs that look alike come from different tables or passages of the source.
What was measured:
Type in all cases: cell-based, human
[1] = tested on: HTT; assay: Splicing RT-qPCR assay, HTT mRNA canonical junction (CJ) and alternative junction (AJ); conditions: Homo sapiens; for AC50: increase in AJ mRNA
Method in brief: (§1)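 Splicing switch read by one-step RT-qPCR of canonical and alternative exon junctions, housekeeper-normalized (GAPDH/GUSB/PPIA), 2^(−ΔΔCt) vs DMSO as percent response. Cells (A673 or K562) dosed 24 h, 11 points 3-fold from 10 uM, DMSO ≤0.25%.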

[2] = tested on: MYB; assay: Splicing RT-qPCR assay, MYB mRNA canonical junction (CJ) and alternative junction (AJ); conditions: Homo sapiens; for AC50: increase in AJ mRNA
Method in brief: as §1

[3] = tested on: MYB; assay: HiBiT protein abundance assay, MYB; conditions: Homo sapiens, K562, 24 h, modified K562 cells
Method in brief: (§2)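 K562 cells with endogenous HiBiT-tagged target were treated 24 h at 37 °C with compound (10-point 3-fold dilution, top 10 μM final, DMSO ≤0.25%). Lytic LgBiT luminescence was normalized to unmodified K562 (baseline) and DMSO-treated tagged cells; IC50 interpolated at 50% from four-parameter logistic fit.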

[4] = tested on: SMN2; assay: Splicing RT-qPCR panel, SMN2 canonical junction (CJ) mRNA; conditions: Homo sapiens, read-out: SMN2 IC50 (decrease in CJ mRNA levels)
Method in brief: as §1

[5] = tested on: Target C; assay: HiBiT protein abundance assay, Target C; conditions: Homo sapiens, K562, 24 h, modified K562 cells
Method in brief: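 HiBiT knock-in K562-derived cells, 10000 cells/well, were treated 24 h at 37 °C with a 10-point 3-fold dilution series (top 10 μM final, DMSO ≤0.25%). Lytic HiBiT luminescence was normalized to unmodified K562 and DMSO controls; IC50 was interpolated at 50% from a four-parameter logistic fit.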

[6] = tested on: HTT; assay: HiBiT protein abundance assay, HTT; conditions: Homo sapiens, K562, 24 h, modified K562 cells
Method in brief: as §2

[7] = tested on: Target C; assay: Splicing RT-qPCR panel, Target C canonical junction (CJ) mRNA; conditions: Homo sapiens, read-out: Target C IC50 (decrease in CJ mRNA levels)
Method in brief: as §1

[8] = 24 h, decrease in CJ mRNA, A673 or K562 cells, 24 hours treatment, RT-qPCR, read-out: HTT CJ IC50
[9] = 24 h, A673 or K562 cells, 24 hours treatment, RT-qPCR
[10] = RT-qPCR panel, canonical junction mRNA, compound concentration having 50% response in CJ decrease, read-out: HTT IC50 (decrease in CJ mRNA levels)
[11] = 24 h, decrease in CJ mRNA, A673 or K562 cells, 24 hours treatment, RT-qPCR, read-out: MYB CJ IC50
[12] = RT-qPCR panel, canonical junction mRNA, compound concentration having 50% response in CJ decrease, read-out: MYB IC50 (decrease in CJ mRNA levels)
[13] = RT-qPCR panel, canonical junction mRNA, compound concentration having 50% response in CJ decrease
[14] = gene panel, CJ qPCR, protocol of Example 142, read-out: HTT IC50 (decrease in CJ mRNA levels)
[15] = gene panel, CJ qPCR, protocol of Example 142, read-out: MYB IC50 (decrease in CJ mRNA levels)
[16] = gene panel, CJ qPCR, protocol of Example 142

| Structure (SMILES) | IC50 [1, 8] [nM] | IC50 [1, 14] [nM] | IC50 [2, 15] [nM] | IC50 ([3]; Table 13B) [nM] | IC50 [4, 16] [nM] | IC50 ([5]; Table 13B) [nM] | IC50 ([6]; Table 13B) [nM] | IC50 [7, 16] [nM] | AC50 [1, 9] [nM] | IC50 [1, 10] [nM] | IC50 [2, 11] [nM] | AC50 [2, 9] [nM] | IC50 [2, 12] [nM] | IC50 ([3]; Table 13A) [nM] | IC50 [4, 13] [nM] | IC50 ([5]; Table 13A) [nM] | IC50 ([6]; Table 13A) [nM] | IC50 [7, 13] [nM] |
| --- | --- | --- | --- | --- | --- | --- | --- | --- | --- | --- | --- | --- | --- | --- | --- | --- | --- | --- |
| CN(c1ncc(-c2ccc(-c3cn[nH]c3)c3ncsc23)nn1)[C@@H]1C[C@H]2CC[C@@H](C1)N2 [Compound 420] | – | – | – | – | – | – | – | – | < 100 | < 100 | 100 to 1000 | 100 to 1000 | 100 to 1000 | 100 to 1000 | 100 to 1000 | < 100 | < 100 | 100 to 1000 |
| c1nc2c(-c3cn[nH]c3)ccc(-c3ccc(N4CCCC5(CNC5)C4)nn3)c2s1 [Compound 189] | > 10000 | – | – | – | – | – | – | – | > 10000 | > 10000 | > 10000 | > 10000 | > 10000 | > 10000 | > 10000 | > 10000 | > 10000 | > 10000 |
| c1cnn(-c2ccc(-c3ccc(N[C@@H]4C[C@H]5CC[C@@H](C4)N5)nn3)c3scnc23)c1 [Compound 343] | – | – | – | – | – | – | – | – | 100 to 1000 | < 100 | 100 to 1000 | 100 to 1000 | 100 to 1000 | 100 to 1000 | < 100 | 100 to 1000 | < 100 | 100 to 1000 |
| c1nc2c(-c3cn[nH]c3)ccc(-c3ccc(O[C@@H]4C[C@H]5CCC[C@@H](C4)N5)nn3)c2[nH]1 [Compound 219] | 100 to 1000 | – | – | – | – | – | – | – | 100 to 1000 | 100 to 1000 | 100 to 1000 | 100 to 1000 | 100 to 1000 | 100 to 1000 | < 100 | 100 to 1000 | < 100 | 100 to 1000 |
| CN(c1ccc(-c2ccc(-c3cn[nH]c3)c3ncsc23)nn1)[C@H]1[C@@H]2CNC[C@@H]21 [Compound 205] | > 10000 | – | – | – | – | – | – | – | > 10000 | > 10000 | > 10000 | > 10000 | > 10000 | 1000 to 10000 | 1000 to 10000 | 1000 to 10000 | > 10000 | > 10000 |
| c1n[nH]cc1-c1ccc(-c2ccc(OC3CCNCC3)nn2)c2[nH]ncc12 [Compound 230] | > 10000 | – | – | – | – | – | – | – | > 10000 | > 10000 | > 10000 | > 10000 | > 10000 | 1000 to 10000 | 1000 to 10000 | > 10000 | 1000 to 10000 | > 10000 |
| CN1C[C@@H]2[C@H](C1)[C@H]2N(C)c1ccc(-c2ccc(-c3cn[nH]c3)c3ncsc23)nn1 [Compound 235] | > 10000 | – | – | – | – | – | – | – | > 10000 | > 10000 | > 10000 | > 10000 | > 10000 | 1000 to 10000 | 1000 to 10000 | 100 to 1000 | 1000 to 10000 | > 10000 |

The next lines start with results.

| IC50 [1, 8] [nM] | IC50 [1, 14] [nM] | IC50 [2, 15] [nM] | IC50 ([3]; Table 13B) [nM] | IC50 [4, 16] [nM] | IC50 ([5]; Table 13B) [nM] | IC50 ([6]; Table 13B) [nM] | IC50 [7, 16] [nM] | Structure (SMILES) | AC50 [1, 9] [nM] | IC50 [1, 10] [nM] | IC50 [2, 11] [nM] | AC50 [2, 9] [nM] | IC50 [2, 12] [nM] | IC50 ([3]; Table 13A) [nM] | IC50 [4, 13] [nM] | IC50 ([5]; Table 13A) [nM] | IC50 ([6]; Table 13A) [nM] | IC50 [7, 13] [nM] |
| --- | --- | --- | --- | --- | --- | --- | --- | --- | --- | --- | --- | --- | --- | --- | --- | --- | --- | --- |
| > 10000 | – | – | – | – | – | – | – | CN1CCC2(CC1)CCN2c1ccc(-c2ccc(-c3cn[nH]c3)c3ncsc23)nn1 [Compound 289] | > 10000 | > 10000 | 1000 to 10000 | > 10000 | 1000 to 10000 | 100 to 1000 | > 10000 | > 10000 | 1000 to 10000 | > 10000 |
| – | 1000 to 10000 | 1000 to 10000 | 1000 to 10000 | 100 to 1000 | > 10000 | 1000 to 10000 | 1000 to 10000 | COc1nc(-c2ccc(OC3CC(C)(C)NC(C)(C)C3)nn2)cnc1-c1cn[nH]c1 [Compound 999] | – | – | – | – | – | – | – | – | – | – |
| 1000 to 10000 | – | – | – | – | – | – | – | c1nc2c(-c3cn[nH]c3)ccc(-c3cnc(N4CCC(NC5CC5)C4)nn3)c2s1 (stereo not drawn) [Compound 416, N-cyclopropyl-1-[6-[4-(1H-pyrazol-4-yl)-1,3-benzothiazol-7-yl]-1,2,4-triazin-3-yl]py-rrolidin-3-amine] | 1000 to 10000 | 1000 to 10000 | 1000 to 10000 | > 10000 | 1000 to 10000 | 1000 to 10000 | 1000 to 10000 | 1000 to 10000 | 1000 to 10000 | > 10000 |
| – | > 10000 | > 10000 | 1000 to 10000 | 1000 to 10000 | 1000 to 10000 | 1000 to 10000 | > 10000 | COc1nc(-c2ccc(NC3CCNCC3)nn2)ccc1-c1cnn(C)n1 [Compound 933] | – | – | – | – | – | – | – | – | – | – |
